Earlier results in patent US9029312B2, “Compositions for cleaning applicators for hair removal compositions” (priority 2012, dated 2015).

Experiments:
[1] = Bhargava & Leonard 1996

## Oc1cc(Cl)ccc1Oc1ccc(Cl)cc1Cl [Triclosan, 5-Chloro-2-(2,4-dichlorophenoxy) phenol]
[1]
  carcinogenic, mutagenic or teratogenic effects: not found to have any carcinogenic, mutagenic or teratogenic effects
  toxicity to humans and other mammals: relatively non-toxic
other
  solubility in mineral oil: relatively high solubility in mineral oil
